Results on one molecule are retold here after patent US5475029A, “Farnesyl compounds as cholesterol lowering agents” (The Board of Trustees of the Leland Stanford Junior …, priority 1993, dated 1995).

Format in all cases: cell-based
The subject of assay [1] is HMGal. The experiment in a line: HMGal activity (in vitro β-galactosidase specific activity) in CHO-HMGal cells. The procedure:
Cell Culture--All cells were grown as monolayers at 37° C. in an atmosphere of 5% CO2. CHO-HMGal cells were grown in minimal essential medium (MEM) supplemented with 0.25 mg/ml active geneticin and either 5% fetal calf serum (FCS) or 5% lipid-poor fetal calf serum (LPS).
Stock Solutions--Stock solutions of farnesyl acetate, ethyl farnesyl ether, and the mixture of 25-hydroxycholesterol with cholesterol were all made in 100% ethanol at 100 times the final concentration. In all experiments in which these compounds were used, there is a final concentration of 1% ethanol in the medium. For control, cells grown with "no additives" or "mevalonate" 100% ethanol was added to the medium to bring the final concentration of ethanol to 1%. The mevalonate stock solution was prepared at a concentration of 2M in 20 mM potassium phosphate buffer (pH 4.5).
β-galactosidase Specific Activity--In vitro β-galactosidase activity was measured using the substrate, o-nitrophenyl-β-D-galactopyranoside. Specific activities were calculated using protein concentration values.
Farnesyl acetate and ethyl farnesyl ether stimulate a reduction in HMGal activity--In an attempt to identify tile non-sterol metabolite(s) that triggers the down regulation of HMG-CoA reductase, five commercially available isoprenoid compounds were tested for their effects on HMGal activity in CHO-HMGal cells. Each of tile compounds tested closely resembled one of tile naturally occurring isoprenoid pyrophosphates, except that the pyrophosphate group had been replaced by either a hydroxyl or an […] group. The compounds tested included: 3-methyl-2-buten-1-ol, the alcohol of the five carbon isoprenoid-dimethylallyl pyrophosphate (a naturally occurring isomer of isopentenyl pyrophosphate); geraniol and geranyl acetate, the alcohol and the […] of the ten carbon isoprenoid-geranyl pyrophosphate; and farnesol and farnesyl acetate, the alcohol and the […] of the fifteen carbon isoprenoid-farnesyl pyrophosphate.
To confirm that the reduction in HMGal activity was the result of a regulatory function specifically targeting the membrane domain of HMGal, the effects of farnesyl acetate on β-galactosidase activity were measured in vitro for both CHO-HMGal cells and CHO-Gal cells. The CHO-Gal cells had been stably transfected with a construct identical to the HMGal construct (using the same vector, promoter, and 5' and 3' flanking regions) except that the construct in the CHO-Gal cells codes for a soluble β-galactosidase protein instead of the HMGal fusion protein with the membrane domain of HMG-CoA reductase. In this experiment, the CHO-Gal cells served to control for any artifacts farnesyl acetate might cause in the β-galactosidase assay or any nonspecific effects farnesyl acetate might have on the rates of protein synthesis or degradation.

In assay [2] the test system is HMG-CoA reductase. The experiment in a line: HMG-CoA reductase synthesis rate ([35S]methionine incorporation). The note with it: 10 μg/ml. The procedure: Measurement of HMGal and HMG-CoA Reductase Synthesis Rates Cells plated into 60×15 mm dishes were grown in 5% LPS MEM with 0.25 mg/ml active geneticin for 24 hours. These cells were washed with PBS and grown for 24 hours in 5% LPS MEM supplemented with 0.25 mg/ml active geneticin, 10 μM compactin and 0.1 mM mevalonate. After 24 hours, the medium was removed, the cells were washed with PBS and the medium was replaced with methionine-free MEM supplemented with 5% LPS, 250 μg/ml of active geneticin, 10 μM compactin, and 0.1 mM mevalonate. In addition, 20 mM mevalonate or 10 μg/ml farnesyl acetate was included in those plates previously treated with these compounds. […] Cells were washed, lysed and the HMGal and HMG-CoA reductase proteins were immunoprecipitated, subjected to SDS-PAGE and quantified. […]
Farnesyl compounds reduce translation and stimulate degradation of HMG-CoA reductase and HMGal A reduction in HMGal specific activity triggered by the farnesyl compounds could have been the result of a decrease in HMGal synthesis, an increase in HMGal degradation, or a combination of changes in both the synthesis and degradation rates. In order to test whether the farnesyl compounds impact synthesis, the rates of HMGal, HMG-CoA reductase, and total cellular protein synthesis were measured by [^35 S]methionine incorporation in the presence and absence of 10 μg/ml farnesyl acetate.

The subject of assay [3] is HMGal. In words: HMGal degradation rate (pulse-chase). The note with it: 10 μg/ml during chase; untreated 6.4 hours. The method, then:
(§1) Measurement of HMGal and HMG-CoA Reductase Degradation Rates Cells grown in 60×15 mm dishes were washed once with ice-cold PBS and starved for 1 hour in 1 ml of methionine-free MEM supplemented with 5% LPS, 250 μg/ml of active geneticin, 10 μM compactin, and 0.1 mM mevalonate. These cells were radio-labeled for 2 hours in 300 μl of the methionine-free starvation medium containing 100 μCi of Tran^35 S-label (>1,000 Ci/mmol). Cells were incubated in an MEM-based chase medium containing 2 mM methionine, 5% LPS, 250 μg/ml of active geneticin, 10 μM compactin, and 0.1 mM mevalonate. During the chase period, some plates also had either 20 mM mevalonate, 10 μg/ml farnesyl acetate or 10 μg/ml ethyl farnesyl ether added to them as indicated in the figure legend. Following the chase, cells were washed, lysed and the HMGal and HMG-CoA reductase proteins were immunoprecipitated, subjected to SDS-PAGE and quantified.
(§2) In order to test whether the farnesyl compounds impact degradation, the rates of degradation for HMGal, HMG-CoA reductase, and total cellular protein were measured in the presence and absence of 10 μg/ml farnesyl acetate and ethyl farnesyl ether.

Assay [4] has as its system total cellular protein. In words: Total cellular protein degradation. The note with it: 10 μg/ml. The procedure:
as §1, §2

Consider `CC(=O)OCC=C(C)CCC=C(C)CCC=C(C)C` [farnesyl acetate], for which, in assay [1] (10 μg/ml, 24 hour treatment), the “reduction of HMGal activity” value amounted to 70%. In assay [1] (20 μg/ml), the “reduction of HMGal activity” value amounted to 80%. Also, the “reduction in HMGal activity at concentrations below the levels toxic to the cells” value in assay [1] (five isoprenoid compounds tested) is given as “stimulated a reduction in HMGal activity”. In addition, the “reduction in the rate of HMG-CoA reductase synthesis” value in assay [2] amounted to 60%. Moreover, in assay [3], the “half-life of HMGal” value worked out at 3.9 h and the “reduction of the half-life of HMGal” value is reported as 40%. Also, in assay [4], the “effect on the degradation of total cellular protein” value was “Neither farnesyl compound had a significant effect”.
